The experiment relates to Nrf2. Briefly: Nrf2 antagonism assay: ARE luciferase reporter in KYSE-70 cells. It is filed as cell-based. Particulars: Homo sapiens, KYSE-70, KYSE-70 cells, positive Imax corresponds to Nrf2 antagonism, read-out: KYSE70 Cellular ARE Luciferase Imax (%). The text has this:
NRF2 binds to a promoter region, antioxidant response element (ARE), to initiate expression of multiple genes. ARE luciferase reporter assays are used to test whether a ligand can activate or repress the expression of target genes using luciferase as a reporter gene.
KYSE-70 is an esophageal squamous cell carcinoma cell line with a Nrf2 mutation at amino acid position W24C. This mutation lowers the affinity between the E3 ligase that includes KEAP1 and Nrf2, resulting in a state in which the synthesis rate of new Nrf2 is faster than the E3's degradation rate of Nrf2, resulting in a “Nrf2 high” state. In KYSE-70 cells, genes are inserted directly after the ARE that trigger the expression of luciferase. Without a NRF2 antagonist in this modified KYSE70 cell line which has an inherently “NRF2 high state”, luciferase is expressed, and a signal is observed.
Nrf2 antagonists bind at C151 of KEAP1 and stabilize the E3 which results in an increased degradation rate of Nrf2. Increased degradation of Nrf2 results in less expression of luciferase, and therefore a less intense signal.
An IC50 is generated from the dose-response curve and an Imax. A positive Imax corresponds to Nrf2 antagonism. Imax >90% correlates with in vivo tumor grown inhibition. Compounds with Imax >50% were included in this description.

For `C=CC(=O)N1CCN(C(=O)C2CC2)C[C@H]1c1cc(Cl)cc(-c2ccc(F)c(C(N)=O)c2)c1` (single isomer, unassigned) [Compound 195], the Emax was 90%.

As to `C=CC(=O)N1CCN(C(=O)C2CC2)C[C@H]1c1cc(Cl)cc(-c2nccc(N)n2)c1` (single isomer, unassigned) [Compound 196], the Emax came to 90%.

As to `C=CC(=O)N1CCN(C(=O)C2CC2)C[C@H]1c1cc(Cl)cc(-c2cc(N)ncn2)c1` (single isomer, unassigned) [Compound 197], the Emax was 87%.

As for `C=CC(=O)N1CCOC[C@H]1c1cc(Cl)cc(-c2nc(N)nc(Cl)n2)c1` (single isomer, unassigned) [Compound 199], the Emax amounted to 92%.

Regarding `C=CC(=O)N1CCN(C(=O)C2CC2)C[C@H]1c1cc(Cl)cc(-c2ncc(N)cn2)c1` (single isomer, unassigned) [Compound 200], the Emax was 91%.

For `C=CC(=O)N1[C@H](c2cc(Cl)nc(-c3cc(N)ncn3)c2)COC[C@H]1C(F)F` (single isomer, unassigned) [Compound 202], the Emax is 94%.

With `[2H]c1nc(N)nc(-c2cc(Cl)cc([C@@H]3COCCN3C(=O)C=C)c2)n1` (single isomer, unassigned) [Compound 208], the Emax was found to be 94%.

Consider `C=CC(=O)N1CCOC[C@H]1c1cc(Cl)cc(-c2ncnc(NCCO)n2)c1` (single isomer, unassigned) [Compound 219], for which the Emax turned out to be 81%.

As for `Nc1ncnc(-c2cc(Cl)cc([C@@H]3COCCN3C(=O)C=C3CC3)c2)n1` (single isomer, unassigned) [Compound 293], the Emax came to 54%.

Turning to `C=C(F)C(=O)N1CCOC[C@H]1c1cc(Cl)cc(-c2ncnc(N)n2)c1` (single isomer, unassigned) [Compound 297], the Emax is 58%.

Regarding `C=CC(=O)N1C[C@@H](F)COC[C@H]1c1cc(Cl)nc(-c2cc(N)ncn2)c1` [Compound 198, 1-((3R,6R)-3-(2-(6-aminopyrimidin-4-yl)-6-chloropyridin-4-yl)-6-fluoro-1,4-oxazepan-4-yl)prop-2-en-1-one], the Emax turned out to be 93%.

For `C=CC(=O)N1[C@H](c2cc(Cl)nc(-c3cc(C)ncn3)c2)COC[C@H]1C(F)F` [Compound 201, 1-((3R,5S)-3-(2-chloro-6-(6-methylpyrimidin-4-yl)pyridin-4-y1)-5-(difluoromethyl)morpholino)prop-2-en-1-one], the Emax came to 93%.

For the origin of these results see patent publication US20260207621A1 (Vividion Therapeutics, Inc., priority 2022, published 2026).
